Measured values from PubChem BioAssay AID1259408 (Genetic Toxicology Data Bank (GENE-TOX), 2018).
The source made the active and inactive calls. The rule behind the calls is not given here.

Tested on: GENE-TOX genotoxicity assays, various organisms and cells
Assay: GENE-TOX mutagenicity studies
Conditions: for call: Assay Type: In vivo carcinogenicity studies
[1] = Species/Cell Type: Nonhuman, Assay Type: Sister-chromatid exchange (SCE) in vitro, Assay Code: SC2+, Evaluation Type: Evaluation B (Post-1980)
[2] = Species/Cell Type: Bacillus subtilis (H17 vs M45T), Assay Type: Rec-assay, spot test, DNA effects (bacterial DNA repair), Assay Code: REXT, Evaluation Type: Evaluation A (Pre-1980)
[3] = Species/Cell Type: Salmonella typhimurium (one or more of the five standard strains: TA98, TA100, TA1535, TA1537, and TA1538), Assay Type: Histidine reverse gene mutation, Ames assay, Assay Code: SAL+, Evaluation Type: Evaluation A (Pre-1980)
[4] = Species/Cell Type: Escherichia coli polA (W3119 vs P3478), Assay Type: Rec-assay, DNA effects (bacterial DNA repair), Assay Code: RE1+, Evaluation Type: Evaluation A (Pre-1980)
[5] = Species/Cell Type: Mouse, Sex: Male, Assay Type: Sperm morphology, Assay Code: SPI-, Evaluation Type: Evaluation A (Pre-1980)
[6] = Species/Cell Type: Nonhuman, Assay Type: Sister-chromatid exchange (SCE) in vitro, Assay Code: SC2+D, Dose Response: With dose response, Evaluation Type: Evaluation A (Pre-1980)
[7] = Species/Cell Type: Nonhuman, Assay Type: Sister-chromatid exchange (SCE) in vivo, Assay Code: SC3+, Evaluation Type: Evaluation B (Post-1980)
[8] = Species/Cell Type: Saccharomyces cerevisiae, Assay Type: Mitotic recombination or gene conversion, Assay Code: YEH+, Evaluation Type: Evaluation A (Pre-1980)
[9] = Species/Cell Type: Salmonella typhimurium, Assay Type: Forward and reverse gene mutation, host-mediated assay, Assay Code: HMA+, Evaluation Type: Evaluation A (Pre-1980)
[10] = Species/Cell Type: Syrian hamster embryo (SA7/SHE) cells, Assay Type: Cell transformation, viral enhanced, Assay Code: CT7+, Evaluation Type: Evaluation A (Pre-1980)
[11] = Species/Cell Type: Syrian hamster embryo (SHE) cells, Assay Type: Cell transformation, clonal assay, Assay Code: CTC+, Evaluation Type: Evaluation A (Pre-1980)
[12] = Species/Cell Type: Mouse prostate cells, Assay Type: Cell transformation, Assay Code: CTM+, Evaluation Type: Evaluation A (Pre-1980)
[13] = Species/Cell Type: Nonhuman, Assay Type: Sister-chromatid exchange (SCE) in vitro, Assay Code: SC2+D, Dose Response: With dose response, Evaluation Type: Evaluation B (Post-1980)
[14] = Species/Cell Type: Salmonella typhimurium (one or more of the five standard strains: TA98, TA100, TA1535, TA1537, and TA1538), Assay Type: Histidine reverse gene mutation, Ames assay, Assay Code: SAL+*, Activation: With metabolic activation, Evaluation Type: Evaluation A (Pre-1980)
[15] = Species/Cell Type: Salmonella typhimurium (one or more of the five standard strains: TA98, TA100, TA1535, TA1537, and TA1538), Assay Type: Histidine reverse gene mutation, Ames assay, Assay Code: SALT, Evaluation Type: Evaluation A (Pre-1980)

C[C@]12CC[C@H]3[C@@H](CCC4=CC(=O)CC[C@@]43C)[C@@H]1CC[C@@H]2OC(=O)CCC1CCCC1
mutagenic call (Species/Cell Type: Human, Sex: Male, Assay Type: Sperm morphology, Assay Code: SPH+, Evaluation Type: Evaluation A (Pre-1980)): active; positive

CC(C)(O)C(Cl)(Cl)Cl
mutagenic call (Species/Cell Type: Mammalian polychromatic erythrocytes, Assay Type: Micronucleus test, chromosome aberrations, Assay Code: MNTT, Evaluation Type: Evaluation B (Post-1980)): no conclusion

CN(O)C(=O)c1ccc2ccccc2c1
mutagenic call [1]: active; positive

[Cl][Pd][Cl]
mutagenic call (Species/Cell Type: Bacillus subtilis (H17 vs M45), Assay Type: Rec-assay, spot test, DNA effects (bacterial DNA repair), Assay Code: REW-, Evaluation Type: Evaluation A (Pre-1980)): inactive; negative

N#Cc1cccc2c([N+](=O)[O-])cccc12
mutagenic call [2]: no conclusion | mutagenic call (Species/Cell Type: Escherichia coli WP2, Assay Type: Tryptophan reverse gene mutation, Assay Code: WP2-, Evaluation Type: Evaluation A (Pre-1980)): inactive; negative | mutagenic call (Species/Cell Type: Escherichia coli WP2 UVRA, Assay Type: Tryptophan reverse gene mutation, Assay Code: WPU+, Evaluation Type: Evaluation A (Pre-1980)): active; positive | mutagenic call [1]: active; positive | mutagenic call [3]: active; positive

CCOP(=S)(OCC)SCSC(C)(C)C
mutagenic call (Species/Cell Type: Hordeum vulgare (barley), Assay Type: Chromosome aberrations, Assay Code: HOC+D, Dose Response: With dose response, Evaluation Type: Evaluation A (Pre-1980)): active; positive

Clc1ccc(N=Nc2ccc(Cl)c(Cl)c2)cc1Cl
mutagenic call (Species/Cell Type: Aspergillus nidulans, Assay Type: Forward gene mutation, Assay Code: ASF+, Evaluation Type: Evaluation A (Pre-1980)): active; positive | mutagenic call (Species/Cell Type: Rat primary hepatocytes, Assay Type: Unscheduled DNA synthesis (UDS) in vitro, DNA effects, Assay Code: UDP+D, Dose Response: With dose response, Evaluation Type: Evaluation A (Pre-1980)): active; positive

CC#CC(OC(=O)NC1CCCCC1)(c1ccccc1)c1ccccc1
mutagenic call [3]: active; positive

CC(=O)OC/N=[N+](/C)[O-]
mutagenic call (Species/Cell Type: Chinese hamster lung (V79) cells, Assay Type: Forward gene mutation at the HPRT or ouabain locus, Assay Code: V79+, Evaluation Type: Evaluation A (Pre-1980)): active; positive | mutagenic call (Species/Cell Type: Drosophila melanogaster, Assay Type: Sex-linked recessive lethal gene mutation, Assay Code: SRL+, Evaluation Type: Evaluation A (Pre-1980)): active; positive | mutagenic call [4]: active; positive | mutagenic call (Species/Cell Type: Fischer rat embryo (RLV/1706) cells, Assay Type: Cell transformation, viral enhanced, Assay Code: CTR+, Evaluation Type: Evaluation A (Pre-1980)): active; positive | mutagenic call (Species/Cell Type: Mouse (BALB/c-3T3) cells, Assay Type: Cell transformation, Assay Code: CTB+, Evaluation Type: Evaluation A (Pre-1980)): active; positive | mutagenic call [5]: inactive; negative | call (Species/Cell Type: Nonhuman, Assay Code: CCG+, Evaluation Type: Evaluation A (Pre-1980)): active; positive | mutagenic call [6]: active; positive | mutagenic call [7]: active; positive | mutagenic call [8]: active; positive | mutagenic call [9]: active; positive | mutagenic call [10]: active; positive | mutagenic call [11]: active; positive

Cc1ccc2cc3ccc4c(F)cccc4c3cc2c1
mutagenic call [12]: active; positive

NC(=O)c1cccc(N)c1
mutagenic call (Species/Cell Type: Chinese hamster ovary (CHO) cells, Assay Type: Forward gene mutation at the HPRT locus, Assay Code: CHOT, Evaluation Type: Evaluation B (Post-1980)): no conclusion | mutagenic call (Species/Cell Type: Human, Assay Type: Sister-chromatid exchange (SCE) in vitro, Assay Code: SC1+D, Dose Response: With dose response, Evaluation Type: Evaluation B (Post-1980)): active; positive | mutagenic call [13]: active; positive

CN(C)c1ccc2cc3ccc(N(C)C)cc3nc2c1
mutagenic call (Species/Cell Type: Allium cepa, Assay Type: Chromosome aberrations, Assay Code: ALC+D, Dose Response: With dose response, Evaluation Type: Evaluation A (Pre-1980)): active; positive | mutagenic call [2]: no conclusion | mutagenic call (Species/Cell Type: Chinese hamster ovary (CHO) cells, Assay Type: Forward gene mutation at the HPRT locus, Assay Code: CHO+, Evaluation Type: Evaluation B (Post-1980)): active; positive | mutagenic call (Species/Cell Type: Drosophila melanogaster, Assay Type: Sex-linked recessive lethal gene mutation, Assay Code: SRLT, Evaluation Type: Evaluation A (Pre-1980)): no conclusion | mutagenic call [4]: active; positive | mutagenic call (Species/Cell Type: Human lymphocytes, Assay Type: Sister-chromatid exchange (SCE) in vitro, Assay Code: SCL+, Evaluation Type: Evaluation B (Post-1980)): active; positive | mutagenic call (Species/Cell Type: Human, Assay Type: Sister-chromatid exchange (SCE) in vitro, Assay Code: SC1+, Evaluation Type: Evaluation B (Post-1980)): active; positive | mutagenic call (Species/Cell Type: Mammalian polychromatic erythrocytes, Assay Type: Micronucleus test, chromosome aberrations, Assay Code: MNT+, Evaluation Type: Evaluation B (Post-1980)): active; positive | mutagenic call (Species/Cell Type: Mouse, Sex: Female, Assay Type: Spot test, gene mutation, Assay Code: MST+, Evaluation Type: Evaluation A (Pre-1980)): active; positive | call (Species/Cell Type: Nonhuman, Assay Code: CCGT, Evaluation Type: Evaluation A (Pre-1980)): no conclusion | mutagenic call [6]: active; positive | mutagenic call (Species/Cell Type: Saccharomyces cerevisiae, Assay Type: Forward gene mutation, Assay Code: YEFT, Evaluation Type: Evaluation A (Pre-1980)): no conclusion | mutagenic call (Species/Cell Type: Saccharomyces cerevisiae, Assay Type: Mitotic recombination or gene conversion, Assay Code: YEC+, Evaluation Type: Evaluation A (Pre-1980)): active; positive | mutagenic call [8]: active; positive | mutagenic call [14]: active; positive | mutagenic call [9]: active; positive | mutagenic call [10]: active; positive | mutagenic call (Species/Cell Type: Syrian hamster embryo (SHE) cells, Assay Type: Cell transformation, clonal assay, Assay Code: CTCT, Evaluation Type: Evaluation A (Pre-1980)): no conclusion

OCc1c2ccccc2cc2c1ccc1ccccc12
mutagenic call [12]: active; positive

[2H]O[2H]
mutagenic call (Species/Cell Type: Drosophila melanogaster, Sex: Male, Assay Type: Heritable translocation test, chromosome aberrations, Assay Code: DHTT, Evaluation Type: Evaluation A (Pre-1980)): no conclusion

OC1c2c(c3cc4ccccc4cc3c3ccccc23)C=C[C@H]1O (some centres not stated)
mutagenic call [13]: active; positive

O=[N+]([O-])c1ccc2[nH]ccc2c1
mutagenic call [3]: active; positive

Nc1ccc(N=Nc2ccccc2)cc1
mutagenic call (Species/Cell Type: Escherichia coli polA (W3110 vs P3478), Assay Type: Rec-assay, DNA effects (bacterial DNA repair), Assay Code: RE2-, Evaluation Type: Evaluation A (Pre-1980)): inactive; negative | mutagenic call (Species/Cell Type: Escherichia coli polA (W3119 vs P3478), Assay Type: Rec-assay, DNA effects (bacterial DNA repair), Assay Code: RE1T, Evaluation Type: Evaluation A (Pre-1980)): no conclusion | mutagenic call (Species/Cell Type: Fischer rat embryo (RLV/1706) cells, Assay Type: Cell transformation, viral enhanced, Assay Code: CTR-, Evaluation Type: Evaluation A (Pre-1980)): inactive; negative | mutagenic call (Species/Cell Type: Mouse embryo (AKR/ME) cells, Assay Type: Cell transformation, Assay Code: CTK-, Evaluation Type: Evaluation A (Pre-1980)): inactive; negative | call (Species/Cell Type: Nonhuman, Assay Code: CCG+L, Evaluation Type: Evaluation A (Pre-1980)): active; positive | mutagenic call [1]: active; positive | mutagenic call [7]: active; positive | mutagenic call (Species/Cell Type: Rat primary hepatocytes, Assay Type: Unscheduled DNA synthesis (UDS) in vitro, DNA effects, Assay Code: UDP+, Evaluation Type: Evaluation A (Pre-1980)): active; positive | mutagenic call (Species/Cell Type: Saccharomyces cerevisiae, Assay Type: Mitotic recombination or gene conversion, Assay Code: YEH-, Evaluation Type: Evaluation A (Pre-1980)): inactive; negative | mutagenic call [14]: active; positive | mutagenic call [9]: active; positive | mutagenic call [11]: active; positive

Nc1nc(-c2cc([N+](=O)[O-])c[nH]2)cs1
mutagenic call [15]: no conclusion

Nc1ccc(N)c(N)c1
mutagenic call [5]: inactive; negative | mutagenic call [15]: no conclusion
